pIC50: −log10 of the molar value. ≈ marks a conversion by molar mass, not a printed value. Read-outs that look alike come from different tables or passages of the source.
Columns and labels:
[1] = tested on: AGSGR cells (gastric adenocarcinoma cell line transfected with human gastrin/CCK2 receptor gene); test: Sulphorhodamine-B (SRB) proliferation assay, G17-treated cells; type: cell-based; settings: compound 100 nM, G17 10 nM
Experimental: The potency of (TR2) and (TR3) was tested in a sulphorhodamine-B (SRB) proliferation assay in a human gastric adenocarcinoma cell line stably transfected with the human gastrin/CCK2 receptor gene (AGSGR). SRB is a fluorescent dye that binds to proteins, so cells with a high rate of protein synthesis (proliferative cells) will show high levels of fluorescence in the SRB assay. […] (TR2) and (TR3) were compared with the positive controls YF476 and YM022.

[2] = molecular target: T1, CCK2 (human) (Homo sapiens, UniProt P32239); test: CCK2 receptor functional assay (antagonist effect, cAMP, HTRF); type: cell-based; parameters: expressed in transfected cells; host or cells: CHO cells
T1 sequence (P32239 1-447): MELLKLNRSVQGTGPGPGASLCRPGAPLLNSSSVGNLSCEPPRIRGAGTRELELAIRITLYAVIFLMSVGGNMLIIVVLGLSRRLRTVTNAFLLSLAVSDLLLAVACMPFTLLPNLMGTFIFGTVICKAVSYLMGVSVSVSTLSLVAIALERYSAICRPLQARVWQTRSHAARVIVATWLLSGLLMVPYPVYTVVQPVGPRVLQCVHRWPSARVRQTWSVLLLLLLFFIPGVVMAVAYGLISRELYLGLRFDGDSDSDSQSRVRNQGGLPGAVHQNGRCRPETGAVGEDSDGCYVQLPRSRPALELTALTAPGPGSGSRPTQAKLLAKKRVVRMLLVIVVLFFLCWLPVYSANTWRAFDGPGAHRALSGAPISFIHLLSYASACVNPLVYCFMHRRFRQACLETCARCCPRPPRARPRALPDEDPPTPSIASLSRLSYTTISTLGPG
From the text: (§1) (TR2) and (TR3) were compared with YF476 and YM022 in CCK1 and CCK2 receptor functional assays with the following assay criteria.
(§2) The potency of the antagonists is expressed as IC50, the concentration of antagonist that causes a half-maximum inhibition of the control agonist response. The affinity of the antagonist for the receptor is expressed as KB, the concentration of antagonist, which would occupy 50% of the receptors at equilibrium.

[3] = cited from earlier work
[4] = molecular target: T2, rat brain CCK2 receptors (Rattus norvegicus, UniProt P30553); settings: cited from earlier work
T2 construct: host or cells: rat brain
T2 sequence (P30553 1-452): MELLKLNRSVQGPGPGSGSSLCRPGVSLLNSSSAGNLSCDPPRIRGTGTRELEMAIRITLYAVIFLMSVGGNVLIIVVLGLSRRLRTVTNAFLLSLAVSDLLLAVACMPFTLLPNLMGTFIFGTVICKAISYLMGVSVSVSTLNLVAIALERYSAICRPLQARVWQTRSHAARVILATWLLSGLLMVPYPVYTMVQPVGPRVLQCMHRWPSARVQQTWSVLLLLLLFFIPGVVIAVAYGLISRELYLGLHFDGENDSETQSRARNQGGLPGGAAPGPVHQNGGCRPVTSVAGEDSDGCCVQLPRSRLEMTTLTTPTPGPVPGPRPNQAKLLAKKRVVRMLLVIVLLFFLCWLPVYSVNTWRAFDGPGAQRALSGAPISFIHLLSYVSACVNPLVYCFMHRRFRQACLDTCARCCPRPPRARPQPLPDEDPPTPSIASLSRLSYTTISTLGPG

[5] = Aqueous solubility study in Britton-Robinson's buffer (HPLC-UV); type: physicochemical; settings: ambient temperature overnight; for solubility: thermodynamic from solid
Experimental: The test compound (2.5 mg of solid; n=1) was weighed in a clear glass vial and Britton-Robinson's buffer (0.5 mL) was added (pH 2.01, pH 3.06, pH 4.06, pH 5.08, pH 5.99, pH 6.98, and pH 8.16). The solution was agitated at ambient temperature overnight using a vial roller system, and then filtered (0.45 μm pore size; without pre-saturation). Two aliquots (50 μL) were sampled from the filtrate and diluted with one volume of 0.1 N hydrochloric acid and methanol (1:1 v/v) before analysis by HPLC-UV. A standard was prepared in DMSO at 10 mg/mL (n=1) which was then diluted 10-fold in 0.1 N hydrochloric acid and methanol (1:1 v/v) to give a 1 mg/mL solution. The concentration of test compound in the filtrate was quantified relative to the concentration standard.
Analysis was done using a gradient HPLC-UV system with a total cycle time of 6 min. The UV detection between 220 nm and 300 nm was done using a photodiode array detector.
The values given in the table above are for crystalline YF476 and (TR2-A) and amorphous (TR1).

[6] = Pharmacokinetics in healthy subjects, single oral dose, API in capsule; settings: human, in vivo
Experimental: In an initial study, healthy volunteers took a single oral dose of 100 mg (TR2) as an active pharmaceutical ingredient (API) in a capsule. Plasma concentrations were measured.
In further clinical studies, healthy volunteers (n=8) took single oral doses of 5, 15, 50 and 100 mg (TR2) as an active pharmaceutical ingredient (API) in a capsule. (Capsule formulation TR2 powder (API) in a hard gelatin capsule, no excipients, no processing). Plasma concentrations were measured.
Healthy volunteers (n=8) took single oral doses of 5, 15, 25 and 50 mg (TR2-A) as API in a capsule (TR2-A (crystalline) in hard gelatin capsule with no excipient, no processing of the API). Plasma concentrations of (TR2) and (TR2-A) were measured. The area under the curve of plasma concentrations of (TR2) after a single oral dose of 50 mg of (TR2-A) API (AUC0-24 h=212.5) was about the same as that observed for a similar formulation of a single oral dose of (TR2) 100 mg (AUC0-24 h=241.5).

[7] = YF476 serum concentrations and bioavailability in healthy subjects (background); type: in vivo, human
From the text: Bioavailability can be improved by preparing and administering a formulation of amorphous YF476, but this requires stabilisation such as in the form of a solid dispersion on hydroxypropyl methyl cellulose by spray-drying. Even with this processing, bioavailability of YF476 was still low. […] However, it would be beneficial to provide a CCK2/gastrin receptor antagonist where administration with food is not required.

[8] = molecular target: T3, CCK1 (human) (Homo sapiens, UniProt P32238); test: CCK1 receptor functional assay (antagonist effect, cAMP, HTRF); type: cell-based; settings: stimulus CCK-8s 300 nM, 10 min 37° C., CHO cells
T3 construct: expressed in transfected cells; host or cells: CHO cells
T3 sequence (P32238 1-428): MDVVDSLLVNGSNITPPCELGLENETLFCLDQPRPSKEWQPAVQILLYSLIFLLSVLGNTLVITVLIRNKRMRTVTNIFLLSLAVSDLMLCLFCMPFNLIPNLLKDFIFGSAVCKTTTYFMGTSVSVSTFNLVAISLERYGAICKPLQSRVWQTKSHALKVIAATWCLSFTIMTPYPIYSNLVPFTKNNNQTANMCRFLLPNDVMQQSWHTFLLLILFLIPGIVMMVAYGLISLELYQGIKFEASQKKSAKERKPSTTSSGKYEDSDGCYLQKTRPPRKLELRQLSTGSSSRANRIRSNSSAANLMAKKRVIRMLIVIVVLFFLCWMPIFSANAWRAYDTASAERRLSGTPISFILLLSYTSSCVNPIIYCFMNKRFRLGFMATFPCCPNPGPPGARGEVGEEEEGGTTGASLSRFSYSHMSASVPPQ
From the text: as §1, §2

[9] = molecular target: T1, CCK2 (human); settings: Semple et al. 1997; cited from earlier work
[10] = tested on: pentagastrin-stimulated gastric acid secretion; test: Pentagastrin-stimulated gastric acid secretion in conscious rats with a chronic gastric fistula; type: in vivo; settings: Rattus norvegicus, sc; subcutaneous injection, conscious rats; read-out: ED50, inhibition of pentagastrin-stimulated gastric acid secretion
Experimental: The effect of subcutaneous injections of YF476, (TR2) and (TR3) on pentagastrin-stimulated gastric acid secretion was tested in conscious rats with a chronic gastric fistula.

[11] = pH 5.08, Britton-Robinson's buffer
[12] = pH 2.01, Britton-Robinson's buffer
[13] = pH 3.06, Britton-Robinson's buffer
[14] = pH 4.06, Britton-Robinson's buffer
[15] = pH 5.99, Britton-Robinson's buffer
[16] = pH 6.98, Britton-Robinson's buffer
[17] = pH 8.16, Britton-Robinson's buffer
[18] = aqueous buffer, pH 2.01, Britton-Robinson's buffer
[19] = aqueous buffer, pH 3.06, Britton-Robinson's buffer
[20] = aqueous buffer, pH 4.06, Britton-Robinson's buffer
[21] = aqueous buffer, pH 5.08, Britton-Robinson's buffer
[22] = aqueous buffer, pH 5.99, Britton-Robinson's buffer
[23] = aqueous buffer, pH 6.98, Britton-Robinson's buffer
[24] = aqueous buffer, pH 8.16, Britton-Robinson's buffer

Structure (SMILES): Cc1cccc(NC(=O)N[C@@H]2N=C(c3ccccc3)c3ccccc3N(CC(=O)c3ccccc3C)C2=O)c1 [YM022, reference compound]
- Inhibition of the anti-proliferative effects of G17 [1]: completely inhibited
- pIC50 [2]: 9.26
- Kb [2]: 0.68 nM
- Aqueous solubility [3]: low
- Affinity at rat brain CCK2 receptors [4]: subnanomolar
- Affinity at rat brain CCK2 receptors relative to rat pancreatic CCK1 receptors [4]: more than two orders of magnitude higher

Structure (SMILES): CNc1cccc(NC(=O)N[C@@H]2N=C(c3ccccn3)c3ccccc3N(CC(=O)C(C)(C)COC(C)=O)C2=O)c1 [TR2-A, (R)-1-[1-(4-Acetoxy-3,3-dimethyl-2-oxo-butyl)-2-oxo-5-pyridin-2-yl-2,3-dihydro-1H-benzo[e][1,4]diazepin-3-yl]-3-(3-methylamino-phenyl)-urea]
- solubility ([5]; pH 2.01, aqueous buffer, pH 2.01, Britton-Robinson's buffer): 4190 µg/mL (≈ 7530 µM)
- solubility ([5]; pH 3.06, aqueous buffer, pH 3.06, Britton-Robinson's buffer): 730 µg/mL (≈ 1310 µM)
- solubility ([5]; pH 4.06, aqueous buffer, pH 4.06, Britton-Robinson's buffer): 218 µg/mL (≈ 392 µM)
- Aqueous solubility [5, 11]: 56 µg/mL
- solubility ([5]; pH 5.99, aqueous buffer, pH 5.99, Britton-Robinson's buffer): 47.2 µg/mL (≈ 84.8 µM)
- solubility ([5]; pH 6.98, aqueous buffer, pH 6.98, Britton-Robinson's buffer): 51 µg/mL (≈ 91.6 µM)
- solubility ([5]; pH 8.16, aqueous buffer, pH 8.16, Britton-Robinson's buffer): 45.4 µg/mL (≈ 81.6 µM)
- AUC(0-t) ([6]; after single oral doses of (TR2-A), analyte TR2-A, read-out: AUC0-24 h of plasma concentrations of (TR2-A)): < 10 ng·h/mL

Structure (SMILES): CNc1cccc(NC(=O)N[C@@H]2N=C(c3ccccn3)c3ccccc3N(CC(=O)C(C)(C)COC(C)=O)C2=O)c1 [TR2-A crystalline]
- Aqueous solubility [5, 12]: 4190 µg/mL
- Aqueous solubility [5, 13]: 730 µg/mL
- Aqueous solubility [5, 14]: 218 µg/mL
- Aqueous solubility [5, 11]: 56 µg/mL
- Aqueous solubility [5, 15]: 47.2 µg/mL
- Aqueous solubility [5, 16]: 51 µg/mL
- Aqueous solubility [5, 17]: 45.4 µg/mL

Structure (SMILES): CNc1cccc(NC(=O)NC2N=C(c3ccccn3)c3ccccc3N(CC(=O)C(C)(C)CO)C2=O)c1 (racemic) [TR1, 1-[1-(4-Hydroxy-3,3-dimethyl-2-oxo-butyl)-2-oxo-5-pyridin-2-yl-2,3-dihydro-1H-1,4-benzodiazepin-3-yl]-3-(3-methylamino-phenyl)-urea]
- solubility [5, 18]: 5000 µg/mL (≈ 9720 µM)
- solubility [5, 19]: 645 µg/mL (≈ 1250 µM)
- solubility [5, 20]: 58.2 µg/mL (≈ 113 µM)
- solubility [5, 21]: 9.8 µg/mL (≈ 19 µM)
- solubility [5, 22]: 11.6 µg/mL (≈ 22.5 µM)
- solubility [5, 23]: 5.84 µg/mL (≈ 11.3 µM)
- solubility [5, 24]: 7.81 µg/mL (≈ 15.2 µM)

Structure (SMILES): CNc1cccc(NC(=O)N[C@@H]2N=C(c3ccccn3)c3ccccc3N(CC(=O)C(C)(C)COC(C)=O)C2=O)c1 [TR2-A amorphous]
- Aqueous solubility [5, 12]: 5000 µg/mL
- Aqueous solubility [5, 13]: 683 µg/mL
- Aqueous solubility [5, 14]: 282 µg/mL
- Aqueous solubility [5, 11]: 128 µg/mL
- Aqueous solubility [5, 15]: 53.4 µg/mL
- Aqueous solubility [5, 16]: 43 µg/mL
- Aqueous solubility [5, 17]: 40.2 µg/mL

Structure (SMILES): CNc1cccc(NC(=O)N[C@@H]2N=C(c3ccccn3)c3ccccc3N(CC(=O)C(C)(C)C)C2=O)c1 [YF476, reference compound]
- Inhibition of the anti-proliferative effects of G17 [1]: completely inhibited
- solubility [5, 18]: 2650 µg/mL (≈ 5320 µM)
- solubility [5, 19]: 99.7 µg/mL (≈ 200 µM)
- solubility [5, 20]: 5.9 µg/mL (≈ 11.8 µM)
- solubility [5, 21]: 1.4 µg/mL (≈ 2.81 µM)
- solubility [5, 22]: 1.3 µg/mL (≈ 2.61 µM)
- solubility [5, 23]: 1.4 µg/mL (≈ 2.81 µM)
- solubility [5, 24]: 1.5 µg/mL (≈ 3.01 µM)
- Selectivity IC50 (CCK1)/IC50 (CCK2) [2]: 308
- Selectivity KB (CCK1)/KB (CCK2) [2]: 375
- pIC50 ([2]; stimulus CCK-8s 10 nM, 10 min 37° C., CHO cells, read-out: CCK2 IC50): 9.28
- Kb ([2]; stimulus CCK-8s 10 nM, 10 min 37° C., CHO cells, read-out: CCK2 KB): 0.064 nM
- Increase of bioavailability by food [7]: 1.6 fold
- Serum concentrations ([7]; crystalline form): extremely low and very variable
- pIC50 [8]: 6.80
- More selective for CCK2 receptors than for CCK1 receptors (compared with YM022) [9]: 5 fold
- AUC ([6]; po, 100 mg): 198 ng·h/mL
- AUC(0-t) ([6]; po, 100 mg): 81.3 ng·h/mL
- ED50 [10]: 0.012 µmol/kg

Source: patent US10906884B2, “Benzodiazepine derivatives as CCK2/gastrin receptor antagonists” (Trio Medicines Ltd, priority 2014, dated 2021)
